According to PMC8587047, “Synthesis and Biological Evaluation of Harmirins, Novel Harmine–Coumarin Hybrids as Potential Anticancer Agents” (Molecules, 2021):

Assays:
HepG2 = experiment: MTT cytotoxicity assay, HepG2; assay type: cell-based; details: Homo sapiens, HepG2; MTT, 72 h, mean ± SD; read-out: IC50 HepG2
From the text: (§1) We selected four different cancer cell lines for antiproliferative screening in vitro, which we believed would provide sufficient data on the anticancer potential of the prepared harmirins (hepatocellular carcinoma—HepG2, colorectal adenocarcinoma, Dukes’ type C—SW620, colorectal carcinoma—HCT116, and breast adenocarcinoma—MCF-7). Additionally, we included one non-cancer cell line (embryonic kidney—HEK293T) to evaluate harmirins’ selectivity. The commonly used anticancer drug 5-FU and harmine were used as positive controls. Pre-screening was performed using 50 µM of the tested compound. Only compounds that led to more than 50% reduction in mitochondrial metabolic activity at 50 µM concentration were selected for further analysis. The selectivity index (SI) for each harmirin was calculated as a fractional ratio between the IC50 values for HEK293T and the cancer cell line MCF-7 or HCT116 since these two cell lines were the most susceptible to harmirins.
(§2) The experiments were carried out on five human cell lines purchased from American Type Culture Collection (ATCC, PO BOX 1549, manassas, VA 20108, USA): HepG2 (hepatocellular carcinoma; ATCC® HB-8065™), SW620 (colorectal adenocarcinoma; ATCC® CCL-227™), HCT116 (colorectal carcinoma ATCC® CCL-247™), MCF-7 (breast adenocarcinoma, ATCC® HTB-22™), and HEK293T (embryonic kidney cells; ATCC® CRL-3216™). All cell lines were cultured as monolayers and maintained in Dulbecco’s modified Eagle medium (DMEM) (Capricorn Scientific, USA), supplemented with 10% fetal bovine serum (FBS) (Capricorn Scientific, USA), 100 U/mL penicillin, and 100 µg/mL streptomycin (Capricorn Scientific, USA) in a humidified atmosphere with 5% CO2 at 37 °C. Cells were seeded in 96-well plates (Corning, Durham, NC, USA) at 5000–7000 cells per well (depending on the cell doubling time of a specific cell line) in 0.1 mL media and cultured for 24 h. The next day, the medium was aspirated, and cells were treated for 72 h. Only the compounds that led to more than a 50% reduction in mitochondrial metabolic activity at a concentration of 50 µM were selected for further analysis. The following concentrations of selected compounds were used: 25, 10, 5, and 1 µM. Working dilutions were freshly prepared on the day of the testing. A fresh growth medium was added to untreated control cells, which were defined as 100% viable. DMSO (0.13%) in DMEM was considered a negative control. 5-Fluorouracil (5-FU) and harmine were used as positive controls. At the end of treatment, media was removed, and cells were incubated for 1 h with 0.5 mg/mL MTT (Abcam, Cambridge, MA, USA) dissolved in serum-deprived DMEM. The absorbance was directly proportional to cell viability. The MTT-containing media was then removed, and 0.1 mL isopropanol was added per well to lyse cells and dissolve formazan. The optical density was measured at 570 nm using a microplate reader (VICTOR3, PerkinElmer). Each test point was performed in triplicate. The IC50 values (concentration required to decrease viability by 50%) were calculated by using nonlinear regression on the sigmoidal dose–response plots and are expressed as mean ± SD.

SW620 = experiment: MTT cytotoxicity assay, SW620; assay type: cell-based; details: Homo sapiens, SW-620; MTT, 72 h, mean ± SD; read-out: IC50 SW620
From the text: as §1, §2

HCT116 = experiment: MTT cytotoxicity assay, HCT116; assay type: cell-based, human; details: for IC50: Homo sapiens, HCT-116, MTT, 72 h, mean ± SD, read-out: IC50 HCT116; for SI (HCT116): ratio IC50 HEK293T / IC50 HCT116
From the text: as §1, §2

MCF-7 = experiment: MTT cytotoxicity assay, MCF-7; assay type: cell-based, human; details: for IC50: Homo sapiens, MCF7, MTT, 72 h, mean ± SD, read-out: IC50 MCF-7; for SI (MCF-7): ratio IC50 HEK293T / IC50 MCF-7; for activity against MCF-7, fold stronger than 5-FU: compared with 5-FU IC50; for activity against MCF-7, fold higher than harmine: compared with harmine IC50
From the text: as §1, §2

HEK293T = experiment: MTT cytotoxicity assay, HEK293T (non-cancer); assay type: cell-based, human; details: Homo sapiens, HEK-293T; MTT, 72 h, mean ± SD; non-cancer cell line; read-out: IC50 Hek293T
From the text: as §1, §2

| SMILES | melting point | IC50 (HepG2) | IC50 (SW620) | IC50 (HCT116) | SI (HCT116) (HCT116) | IC50 (MCF-7) | SI (MCF-7) (MCF-7) | IC50 (HEK293T) | activity against MCF-7, fold stronger than 5-FU (MCF-7) | activity against MCF-7, fold higher than harmine (MCF-7) |
| --- | --- | --- | --- | --- | --- | --- | --- | --- | --- | --- |
| Cc1nccc2c1[nH]c1cc(OCc3cn(-c4cc(=O)oc5ccc(Cl)cc45)nn3)ccc12 [12c, 6-Chloro-4-(4-(((1-methyl-9H-pyrido[3,4-b]indol-7-yl)oxy)methyl)-1H-1,2,3-triazol-1-yl)-2H-chromen-2-one] | 244 to 247 °C (dec.) | > 50 µM | > 50 µM | 37.6 ± 6.9 µM | 1.2 | 38.2 ± 2.5 µM | 1.2 | 46.2 ± 4.7 µM |  |  |
| Cc1nccc2c1[nH]c1ccc(OCc3cn(-c4cc(=O)oc5ccc(Cl)cc45)nn3)cc12 [11c, 6-Chloro-4-(4-(((1-methyl-9H-pyrido[3,4-b]indol-6-yl)oxy)methyl)-1H-1,2,3-triazol-1-yl)-2H-chromen-2-one] | 220 to 225 °C (dec.) | 14 ± 1.2 µM | 30.3 ± 3.9 µM | 15.5 ± 4.4 µM | 0.8 | 13.3 ± 1.5 µM | 0.9 | 12.2 ± 1 µM |  |  |
| COc1ccc2c3ccnc(C)c3n(Cc3cn(-c4cc(=O)oc5ccc(C)cc45)nn3)c2c1 [13b, 4-(4-((7-Methoxy-1-methyl-9H-pyrido[3,4-b]indol-9-yl)methyl)-1H-1,2,3-triazol-1-yl)-6-methyl-2H-chromen-2-one] | 253 to 255 °C (dec.) | > 50 µM | > 50 µM | > 50 µM | >1 | > 50 µM | >1 | > 50 µM |  |  |
| COc1ccc2c3ccnc(C)c3n(Cc3cn(-c4cc(=O)oc5ccc(Cl)cc45)nn3)c2c1 [13c, 6-Chloro-4-(4-((7-methoxy-1-methyl-9H-pyrido[3,4-b]indol-9-yl)methyl)-1H-1,2,3-triazol-1-yl)-2H-chromen-2-one] | 233 to 239.5 °C (dec.) | > 50 µM | > 50 µM | 34.4 ± 3.3 µM | >1.5 | 32 ± 1.9 µM | >1.6 | > 50 µM |  |  |
| COc1ccc2c3ccnc(C)c3n(Cc3cn(-c4cc(=O)oc5ccccc45)nn3)c2c1 [13a, 4-(4-((7-Methoxy-1-methyl-9H-pyrido[3,4-b]indol-9-yl)methyl)-1H-1,2,3-triazol-1-yl)-2H-chromen-2-one] | 239 to 243.5 °C (dec.) | 19.6 ± 1.3 µM | > 50 µM | 3.4 ± 0.6 µM | 3.6 | 34 ± 2.1 µM | 0.4 | 12.4 ± 1.1 µM |  |  |
| Cc1nccc2c1[nH]c1cc(OCc3cn(-c4cc(=O)oc5ccccc45)nn3)ccc12 [12a, 4-(4-(((1-Methyl-9H-pyrido[3,4-b]indol-7-yl)oxy)methyl)-1H-1,2,3-triazol-1-yl)-2H-chromen-2-one] |  | 19.8 ± 1.1 µM | 30 ± 3.5 µM | 10 ± 3.4 µM | 1.5 | 21.6 ± 3.7 µM | 0.7 | 14.7 ± 0.8 µM |  |  |
| COc1ccc2c3ccnc(C)c3n(Cc3cn(-c4cc(=O)oc5ccc(F)cc45)nn3)c2c1 [13d, 6-Fluoro-4-(4-((7-methoxy-1-methyl-9H-pyrido[3,4-b]indol-9-yl)methyl)-1H-1,2,3-triazol-1-yl)-2H-chromen-2-one] | 235 to 237 °C (dec.) | 3.1 ± 0.5 µM | 3.3 ± 0.4 µM | 12.7 ± 0.6 µM | 0.3 | 2.7 ± 0.5 µM | 1.5 | 3.9 ± 0.3 µM | 9–13 fold | 5–7 fold |
| Cc1nccc2c1[nH]c1ccc(OCc3cn(-c4cc(=O)oc5ccccc45)nn3)cc12 [11a, 4-(4-(((1-Methyl-9H-pyrido[3,4-b]indol-6-yl)oxy)methyl)-1H-1,2,3-triazol-1-yl)-2H-chromen-2-one] | 235.5 to 238 °C (dec.) | 6.4 ± 0.2 µM | 8.4 ± 0.3 µM | 3.3 ± 0.4 µM | 2 | 2.2 ± 0.2 µM | 3 | 6.4 ± 0.2 µM | 9–13 fold | 5–7 fold |
| O=c1[nH]cc(F)c(=O)[nH]1 [5-FU, 5-fluorouracil, reference compound] |  | 5.5 ± 0.6 µM | 9.4 ± 0.3 µM | 5.2 ± 2.8 µM | 1.6 | 23.9 ± 5.7 µM | 0.3 | 8.1 ± 0.8 µM |  |  |

Further lines, with some results ahead:

| melting point | SMILES | IC50 (HepG2) | IC50 (SW620) | IC50 (HCT116) | SI (HCT116) (HCT116) | IC50 (MCF-7) | SI (MCF-7) (MCF-7) | IC50 (HEK293T) | activity against MCF-7, fold stronger than 5-FU (MCF-7) | activity against MCF-7, fold higher than harmine (MCF-7) |
| --- | --- | --- | --- | --- | --- | --- | --- | --- | --- | --- |
| 239.5 to 241 °C (dec.) | O=c1cc(OCc2cn(Cc3nccc4c3[nH]c3ccccc34)nn2)c2cc(F)ccc2o1 [4d, 4-((1-((9H-Pyrido[3,4-b]indol-1-yl)methyl)-1H-1,2,3-triazol-4-yl)methoxy)-6-fluoro-2H-chromen-2-one] | > 50 µM | > 50 µM | 33.1 ± 7.7 µM | 1.4 | > 50 µM | <0.9 | 45.8 ± 0.2 µM |  |  |
| 246.5 to 251 °C (dec.) | Cc1ccc2oc(=O)cc(OCc3cn(Cc4nccc5c4[nH]c4ccccc45)nn3)c2c1 [4b, 4-((1-((9H-Pyrido[3,4-b]indol-1-yl)methyl)-1H-1,2,3-triazol-4-yl)methoxy)-6-methyl-2H-chromen-2-one] | 27.3 ± 1.2 µM | > 50 µM | > 50 µM | <0.5 | 35.7 ± 1 µM | 0.7 | 26 ± 1 µM |  |  |
| 254 to 257.5 °C (dec.) | Cc1nc(Cn2cc(COc3cc(=O)oc4ccc(Cl)cc34)nn2)cc2c1[nH]c1ccccc12 [5c, 6-Chloro-4-((1-((1-methyl-9H-pyrido[3,4-b]indol-3-yl)methyl)-1H-1,2,3-triazol-4-yl)methoxy)-2H-chromen-2-one] | 18.5 ± 2.3 µM | > 50 µM | 7.1 ± 0.7 µM | 1.2 | 15 ± 1.3 µM | 0.6 | 8.5 ± 0.3 µM |  |  |
| 259 to 261.5 °C (dec.) | Cc1nc(Cn2cc(COc3cc(=O)oc4ccc(F)cc34)nn2)cc2c1[nH]c1ccccc12 [5d, 6-Fluoro-4-((1-((1-methyl-9H-pyrido[3,4-b]indol-3-yl)methyl)-1H-1,2,3-triazol-4-yl)methoxy)-2H-chromen-2-one] | > 50 µM | > 50 µM | > 50 µM | <0.1 |  | <0.1 | 7 ± 1.6 µM |  |  |
| 260.5 to 264 °C (dec.) | O=c1cc(OCc2cn(Cc3nccc4c3[nH]c3ccccc34)nn2)c2ccccc2o1 [4a, 4-((1-((9H-Pyrido[3,4-b]indol-1-yl)methyl)-1H-1,2,3-triazol-4-yl)methoxy)-2H-chromen-2-one] | 29.5 ± 3.5 µM | > 50 µM | > 50 µM | >1 | > 50 µM | >1 | > 50 µM |  |  |
| 263.5 to 265 °C (dec.) | O=c1cc(OCc2cn(Cc3nccc4c3[nH]c3ccccc34)nn2)c2cc(Cl)ccc2o1 [4c, 4-((1-((9H-Pyrido[3,4-b]indol-1-yl)methyl)-1H-1,2,3-triazol-4-yl)methoxy)-6-chloro-2H-chromen-2-one] | > 50 µM | > 50 µM | > 50 µM | >1 | 39.1 ± 3.6 µM | >1.3 | > 50 µM |  |  |
